Assay results as given in the NIST ThermoML archive (doi:10.1016/j.jct.2010.08.019).

Assay: xn = mol fraction of the nth substance listed
Settings: for surface tension liquid-gas: Wilhelmy-plate method; for viscosity / mass density: 101 kPa, Liquid; for viscosity: Falling or rolling sphere viscometry; for mass density: Vibrating tube method

CC(C)CC(C)(C)C [2,2,4-trimethylpentane] + CC(C)O
Settings | mass density [kg/m3] | surface tension liquid-gas [mN/m] | viscosity [mPa·s]
293.15 K, x2 = 0 | 691.98 | 18.8 | 0.503
293.15 K, x2 = 0.0501 | 693.38 | – | 0.502
293.15 K, x2 = 0.1006 | 695.3 | 18.8 | 0.509
293.15 K, x2 = 0.1512 | 697.45 | – | 0.517
293.15 K, x2 = 0.2003 | 699.71 | 18.9 | 0.53
293.15 K, x2 = 0.2501 | 702.18 | – | 0.543
293.15 K, x2 = 0.3003 | 704.91 | 19 | 0.563
293.15 K, x2 = 0.3502 | 707.91 | – | 0.593
293.15 K, x2 = 0.4004 | 711.2 | 19 | 0.628
293.15 K, x2 = 0.4502 | 714.74 | – | 0.662
293.15 K, x2 = 0.5001 | 718.61 | 19.2 | 0.699
293.15 K, x2 = 0.55 | 722.8 | – | 0.755
293.15 K, x2 = 0.5998 | 727.34 | 19.3 | 0.82
293.15 K, x2 = 0.6502 | 732.45 | – | 0.906
293.15 K, x2 = 0.7002 | 737.93 | 19.6 | 1.004
293.15 K, x2 = 0.7499 | 743.9 | – | 1.12
293.15 K, x2 = 0.7999 | 750.57 | 20 | 1.264
293.15 K, x2 = 0.85 | 757.91 | – | 1.439
293.15 K, x2 = 0.8999 | 766.04 | 20.6 | 1.666
293.15 K, x2 = 0.95 | 775.2 | – | 1.96
303.15 K, x2 = 0 | 683.61 | 17.9 | 0.447
303.15 K, x2 = 0.05 | 684.93 | – | 0.444
303.15 K, x2 = 0.1 | 686.65 | 17.9 | 0.45
303.15 K, x2 = 0.1499 | 688.68 | – | 0.457
303.15 K, x2 = 0.2004 | 690.94 | 17.9 | 0.464
303.15 K, x2 = 0.2497 | 693.36 | – | 0.474
303.15 K, x2 = 0.3 | 696.11 | 18 | 0.491
303.15 K, x2 = 0.3499 | 699.03 | – | 0.508
303.15 K, x2 = 0.4008 | 702.3 | 18 | 0.532
303.15 K, x2 = 0.4503 | 705.79 | – | 0.558
303.15 K, x2 = 0.5 | 709.61 | 18.1 | 0.589
303.15 K, x2 = 0.5498 | 713.82 | – | 0.633
303.15 K, x2 = 0.6001 | 718.44 | 18.3 | 0.682
303.15 K, x2 = 0.65 | 723.45 | – | 0.745
303.15 K, x2 = 0.7001 | 728.94 | 18.6 | 0.814
303.15 K, x2 = 0.7495 | 734.92 | – | 0.899
303.15 K, x2 = 0.7989 | 741.51 | 19 | 0.995
303.15 K, x2 = 0.8499 | 748.97 | – | 1.158
303.15 K, x2 = 0.8997 | 757.15 | 19.6 | 1.307
303.15 K, x2 = 0.95 | 766.32 | – | 1.485
313.15 K, x2 = 0 | 675.23 | 16.9 | 0.404
313.15 K, x2 = 0.0499 | 676.34 | – | 0.398
313.15 K, x2 = 0.1001 | 677.92 | 16.9 | 0.401
313.15 K, x2 = 0.1503 | 679.86 | – | 0.405
313.15 K, x2 = 0.2001 | 682.09 | 16.9 | 0.412
313.15 K, x2 = 0.2499 | 684.47 | – | 0.42
313.15 K, x2 = 0.3003 | 687.15 | 17 | 0.43
313.15 K, x2 = 0.3497 | 689.97 | – | 0.449
313.15 K, x2 = 0.4 | 693.18 | 17.1 | 0.458
313.15 K, x2 = 0.4502 | 696.67 | – | 0.476
313.15 K, x2 = 0.5005 | 700.49 | 17.2 | 0.5
313.15 K, x2 = 0.5499 | 704.67 | – | 0.529
313.15 K, x2 = 0.6 | 709.23 | 17.5 | 0.569
313.15 K, x2 = 0.6498 | 714.27 | – | 0.61
313.15 K, x2 = 0.6999 | 719.71 | 17.8 | 0.657
313.15 K, x2 = 0.75 | 725.83 | – | 0.719
313.15 K, x2 = 0.7998 | 732.49 | 18.2 | 0.782
313.15 K, x2 = 0.8498 | 739.89 | – | 0.87
313.15 K, x2 = 0.8999 | 748.21 | 18.8 | 0.987
313.15 K, x2 = 0.9499 | 757.39 | – | 1.129
323.15 K, x2 = 0 | 666.8 | 16.2 | 0.365
323.15 K, x2 = 0.0501 | 667.65 | – | 0.359
323.15 K, x2 = 0.1 | 669.08 | 16.2 | 0.36
323.15 K, x2 = 0.15 | 670.98 | – | 0.366
323.15 K, x2 = 0.1998 | 673.08 | 16.2 | 0.37
323.15 K, x2 = 0.25 | 675.42 | – | 0.375
323.15 K, x2 = 0.3 | 677.99 | 16.2 | 0.383
323.15 K, x2 = 0.35 | 680.86 | – | 0.392
323.15 K, x2 = 0.4 | 683.93 | 16.3 | 0.403
323.15 K, x2 = 0.4499 | 687.34 | – | 0.417
323.15 K, x2 = 0.5 | 691.07 | 16.4 | 0.433
323.15 K, x2 = 0.5501 | 695.17 | – | 0.456
323.15 K, x2 = 0.6 | 699.74 | 16.7 | 0.479
323.15 K, x2 = 0.65 | 704.78 | – | 0.508
323.15 K, x2 = 0.7 | 710.22 | 17 | 0.544
323.15 K, x2 = 0.7499 | 716.22 | – | 0.588
323.15 K, x2 = 0.7999 | 722.88 | 17.4 | 0.632
323.15 K, x2 = 0.85 | 730.48 | – | 0.696
323.15 K, x2 = 0.9 | 738.82 | 18 | 0.776
323.15 K, x2 = 0.95 | 748.16 | – | 0.875
